± gives the uncertainty stated by the source.
Test: xn = mol fraction of the nth substance listed
Conditions: 101.33 kPa

## COC(=O)CC(C)=O + CCCCO
298.15 K, x1 = 0.1022
  viscosity: 1.886 ± 0.045 mPa·s
298.15 K, x1 = 0.2039
  viscosity: 1.628 ± 0.039 mPa·s
298.15 K, x1 = 0.306
  viscosity: 1.465 ± 0.036 mPa·s
298.15 K, x1 = 0.4081
  viscosity: 1.378 ± 0.034 mPa·s
298.15 K, x1 = 0.511
  viscosity: 1.328 ± 0.033 mPa·s
298.15 K, x1 = 0.6074
  viscosity: 1.311 ± 0.032 mPa·s
298.15 K, x1 = 0.7044
  viscosity: 1.321 ± 0.033 mPa·s
298.15 K, x1 = 0.8051
  viscosity: 1.368 ± 0.034 mPa·s
298.15 K, x1 = 0.9038
  viscosity: 1.436 ± 0.035 mPa·s
303.15 K, x1 = 0.1022
  viscosity: 1.669 ± 0.04 mPa·s
303.15 K, x1 = 0.2039
  viscosity: 1.447 ± 0.035 mPa·s
303.15 K, x1 = 0.306
  viscosity: 1.308 ± 0.032 mPa·s
303.15 K, x1 = 0.4081
  viscosity: 1.235 ± 0.031 mPa·s
303.15 K, x1 = 0.511
  viscosity: 1.197 ± 0.03 mPa·s
303.15 K, x1 = 0.6074
  viscosity: 1.183 ± 0.029 mPa·s
303.15 K, x1 = 0.7044
  viscosity: 1.197 ± 0.03 mPa·s
303.15 K, x1 = 0.8051
  viscosity: 1.211 ± 0.03 mPa·s
303.15 K, x1 = 0.9038
  viscosity: 1.302 ± 0.032 mPa·s
308.15 K, x1 = 0.1022
  viscosity: 1.487 ± 0.036 mPa·s
308.15 K, x1 = 0.2039
  viscosity: 1.301 ± 0.032 mPa·s
308.15 K, x1 = 0.306
  viscosity: 1.195 ± 0.03 mPa·s
308.15 K, x1 = 0.4081
  viscosity: 1.118 ± 0.028 mPa·s
308.15 K, x1 = 0.511
  viscosity: 1.09 ± 0.027 mPa·s
308.15 K, x1 = 0.6074
  viscosity: 1.08 ± 0.027 mPa·s
308.15 K, x1 = 0.7044
  viscosity: 1.093 ± 0.027 mPa·s
308.15 K, x1 = 0.8051
  viscosity: 1.131 ± 0.028 mPa·s
308.15 K, x1 = 0.9038
  viscosity: 1.19 ± 0.03 mPa·s

## OCC(O)CO + CCCCO
298.15 K, x1 = 0.1003
  viscosity: 4.05 ± 0.41 mPa·s
298.15 K, x1 = 0.1997
  viscosity: 6.403 ± 0.65 mPa·s
298.15 K, x1 = 0.3003
  viscosity: 10.09 ± 1 mPa·s
298.15 K, x1 = 0.4007
  viscosity: 18.38 ± 1.9 mPa·s
298.15 K, x1 = 0.4996
  viscosity: 37.92 ± 4 mPa·s
298.15 K, x1 = 0.5995
  viscosity: 83.21 ± 8.8 mPa·s
298.15 K, x1 = 0.6994
  viscosity: 180.7 ± 19 mPa·s
298.15 K, x1 = 0.8004
  viscosity: 338.3 ± 36 mPa·s
298.15 K, x1 = 0.8999
  viscosity: 541.7 ± 59 mPa·s
308.15 K, x1 = 0.1003
  viscosity: 3.014 ± 0.31 mPa·s
308.15 K, x1 = 0.1997
  viscosity: 4.518 ± 0.46 mPa·s
308.15 K, x1 = 0.3003
  viscosity: 6.896 ± 0.71 mPa·s
308.15 K, x1 = 0.4007
  viscosity: 11.9 ± 1.2 mPa·s
308.15 K, x1 = 0.4996
  viscosity: 21.63 ± 2.3 mPa·s
308.15 K, x1 = 0.5995
  viscosity: 44.15 ± 4.6 mPa·s
308.15 K, x1 = 0.6994
  viscosity: 82.38 ± 8.5 mPa·s
308.15 K, x1 = 0.8004
  viscosity: 144.5 ± 15 mPa·s
308.15 K, x1 = 0.8999
  viscosity: 231.5 ± 24 mPa·s
318.15 K, x1 = 0.1003
  viscosity: 2.324 ± 0.24 mPa·s
318.15 K, x1 = 0.1997
  viscosity: 3.356 ± 0.34 mPa·s
318.15 K, x1 = 0.3003
  viscosity: 4.9 ± 0.5 mPa·s
318.15 K, x1 = 0.4007
  viscosity: 8.136 ± 0.83 mPa·s
318.15 K, x1 = 0.4996
  viscosity: 13.77 ± 1.4 mPa·s
318.15 K, x1 = 0.5995
  viscosity: 24.56 ± 2.5 mPa·s
318.15 K, x1 = 0.6994
  viscosity: 41.13 ± 4.2 mPa·s
318.15 K, x1 = 0.8004
  viscosity: 68.13 ± 7 mPa·s
318.15 K, x1 = 0.8999
  viscosity: 105.3 ± 11 mPa·s

## COC(=O)CC(C)=O + CCCCOC(C)=O
298.15 K, x1 = 0.1019
  viscosity: 0.719 ± 0.01 mPa·s
298.15 K, x1 = 0.2013
  viscosity: 0.768 ± 0.011 mPa·s
298.15 K, x1 = 0.3015
  viscosity: 0.826 ± 0.011 mPa·s
298.15 K, x1 = 0.4035
  viscosity: 0.895 ± 0.012 mPa·s
298.15 K, x1 = 0.5006
  viscosity: 0.969 ± 0.013 mPa·s
298.15 K, x1 = 0.6004
  viscosity: 1.055 ± 0.014 mPa·s
298.15 K, x1 = 0.7005
  viscosity: 1.163 ± 0.015 mPa·s
298.15 K, x1 = 0.8087
  viscosity: 1.289 ± 0.017 mPa·s
298.15 K, x1 = 0.8989
  viscosity: 1.407 ± 0.018 mPa·s
303.15 K, x1 = 0.1019
  viscosity: 0.672 ± 0.009 mPa·s
303.15 K, x1 = 0.2013
  viscosity: 0.716 ± 0.01 mPa·s
303.15 K, x1 = 0.3015
  viscosity: 0.768 ± 0.011 mPa·s
303.15 K, x1 = 0.4035
  viscosity: 0.83 ± 0.011 mPa·s
303.15 K, x1 = 0.5006
  viscosity: 0.896 ± 0.012 mPa·s
303.15 K, x1 = 0.6004
  viscosity: 0.973 ± 0.013 mPa·s
303.15 K, x1 = 0.7005
  viscosity: 1.068 ± 0.014 mPa·s
303.15 K, x1 = 0.8087
  viscosity: 1.181 ± 0.015 mPa·s
303.15 K, x1 = 0.8989
  viscosity: 1.284 ± 0.017 mPa·s
308.15 K, x1 = 0.1019
  viscosity: 0.629 ± 0.009 mPa·s
308.15 K, x1 = 0.2013
  viscosity: 0.669 ± 0.009 mPa·s
308.15 K, x1 = 0.3015
  viscosity: 0.717 ± 0.01 mPa·s
308.15 K, x1 = 0.4035
  viscosity: 0.774 ± 0.011 mPa·s
308.15 K, x1 = 0.5006
  viscosity: 0.832 ± 0.011 mPa·s
308.15 K, x1 = 0.6004
  viscosity: 0.901 ± 0.012 mPa·s
308.15 K, x1 = 0.7005
  viscosity: 0.987 ± 0.013 mPa·s
308.15 K, x1 = 0.8087
  viscosity: 1.085 ± 0.014 mPa·s
308.15 K, x1 = 0.8989
  viscosity: 1.179 ± 0.015 mPa·s

Source: the CheMixHub viscosity set
